# System: 60 cancer cell lines (NCI 60 cancer cell line series)
# Experiment: NCI-DTP in vitro cancer screen, sulforhodamine B (SRB) growth inhibition, 48 hour exposure
# Format: cell-based, human
# Set-up: key to sensitivity class Ovarian OVCAR-8 CL6005 / sensitivity class Ovarian SK-OV-3 CL6011 / sensitivity class Prostate DU-145 CL11003 / sensitivity class NSCLC NCI-H522 CL1003 / sensitivity class Ovarian IGROV1 CL6010 / sensitivity class Ovarian OVCAR-4 CL6002 / sensitivity class Prostate PC-3(I) CL11001 / sensitivity class Renal A498 CL9013 / sensitivity class Renal SN12C CL9008: sensitivity class: 1 = Low, 2 = Medium, 3 = High
# Outline: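 Values come from the NCI-DTP screen database: -log GI50, the concentration giving 50% growth inhibition, derived from SRB cell-mass dose-response curves. Each line seeded at its own density, treated day 1 at five ten-fold-spaced doses in duplicate wells, stained after 48 h.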
smiles,measurement,setting,value
NC(=O)NO [Hydroxyurea],"classification of cell line as Low(1), Medium(2) or High(3) sensitivity to compound",Breast BT-549 (CL5013),1
same,"classification of cell line as Low(1), Medium(2) or High(3) sensitivity to compound",Breast HS-578T CL5006,2
same,"classification of cell line as Low(1), Medium(2) or High(3) sensitivity to compound",Breast MCF7(I) (CL5001),2
same,"classification of cell line as Low(1), Medium(2) or High(3) sensitivity to compound",Breast MCF7/ADRr (CL5002),2
same,"classification of cell line as Low(1), Medium(2) or High(3) sensitivity to compound",Breast MDA-MB-231 CL5005,1
same,"classification of cell line as Low(1), Medium(2) or High(3) sensitivity to compound",Breast MDA-MB-435 (CL5011),1
same,"classification of cell line as Low(1), Medium(2) or High(3) sensitivity to compound",Breast MDA-N CL5012,1
same,"classification of cell line as Low(1), Medium(2) or High(3) sensitivity to compound",Breast T-47D (CL5014),1
same,"classification of cell line as Low(1), Medium(2) or High(3) sensitivity to compound",CNS SF-268 CL12014,2
same,"classification of cell line as Low(1), Medium(2) or High(3) sensitivity to compound",CNS SF-295 CL12015,3
same,"classification of cell line as Low(1), Medium(2) or High(3) sensitivity to compound",CNS SF-539 CL12016,3
same,"classification of cell line as Low(1), Medium(2) or High(3) sensitivity to compound",CNS SNB-19 (CL12002),1
same,"classification of cell line as Low(1), Medium(2) or High(3) sensitivity to compound",CNS SNB-75(I) CL12005,2
same,"classification of cell line as Low(1), Medium(2) or High(3) sensitivity to compound",CNS U251(I) CL12009,2
same,"classification of cell line as Low(1), Medium(2) or High(3) sensitivity to compound",Colon COLO-250 CL4010,1
same,"classification of cell line as Low(1), Medium(2) or High(3) sensitivity to compound",Colon HCC-2998 (CL4002),2
same,"classification of cell line as Low(1), Medium(2) or High(3) sensitivity to compound",Colon HCT-15 CL4015,2
same,"classification of cell line as Low(1), Medium(2) or High(3) sensitivity to compound",Colon HCT-116 (CL4003),2
same,"classification of cell line as Low(1), Medium(2) or High(3) sensitivity to compound",Colon HT29(I) CL4001,2
same,"classification of cell line as Low(1), Medium(2) or High(3) sensitivity to compound",Colon KM12 (CL4017),2
same,"classification of cell line as Low(1), Medium(2) or High(3) sensitivity to compound",Colon SW-620 (CL4009),2
same,"classification of cell line as Low(1), Medium(2) or High(3) sensitivity to compound",Leukemia CCRF-CEM(I) (CL7003),3
same,"classification of cell line as Low(1), Medium(2) or High(3) sensitivity to compound",Leukemia HL-60(I) (CL7008),3
same,"classification of cell line as Low(1), Medium(2) or High(3) sensitivity to compound",Leukemia K562(I) CL7005,2
same,"classification of cell line as Low(1), Medium(2) or High(3) sensitivity to compound",Leukemia MOLT-4 (CL7006),3
same,"classification of cell line as Low(1), Medium(2) or High(3) sensitivity to compound",Leukemia RPMI-8226(I) (CL7010),3
same,"classification of cell line as Low(1), Medium(2) or High(3) sensitivity to compound",Leukemia SR CL7019,3
same,"classification of cell line as Low(1), Medium(2) or High(3) sensitivity to compound",Melanoma LOX IMVI CL10001,2
same,"classification of cell line as Low(1), Medium(2) or High(3) sensitivity to compound",Melanoma M14 (CL10014),2
same,"classification of cell line as Low(1), Medium(2) or High(3) sensitivity to compound",Melanoma MALME-3M CL10002,2
same,"classification of cell line as Low(1), Medium(2) or High(3) sensitivity to compound",Melanoma SK-MEL-2 (CL10005),1
same,"classification of cell line as Low(1), Medium(2) or High(3) sensitivity to compound",Melanoma SK-MEL-5 (CL10007),2
same,"classification of cell line as Low(1), Medium(2) or High(3) sensitivity to compound",Melanoma SK-MEL-28 (CL10008),1
same,"classification of cell line as Low(1), Medium(2) or High(3) sensitivity to compound",Melanoma UACC-62 (CL10020),3
same,"classification of cell line as Low(1), Medium(2) or High(3) sensitivity to compound",Melanoma UACC-257 (CL10021),1
same,"classification of cell line as Low(1), Medium(2) or High(3) sensitivity to compound",NSCLC A549/ATCC (CL1004),2
same,"classification of cell line as Low(1), Medium(2) or High(3) sensitivity to compound",NSCLC EKVX (CL1008),1
same,"classification of cell line as Low(1), Medium(2) or High(3) sensitivity to compound",NSCLC HOP-62 (CL1026),2
same,"classification of cell line as Low(1), Medium(2) or High(3) sensitivity to compound",NSCLC HOP-92 (CL1029),2
same,"classification of cell line as Low(1), Medium(2) or High(3) sensitivity to compound",NSCLC NCI-H226 CL1013,2
same,sensitivity class NSCLC NCI-H23(I) CL1001,"cell line NSCLC NCI-H23(I), CL1001",2
same,sensitivity class NSCLC NCI-H332M CL1017,"cell line NSCLC NCI-H332M, CL1017",1
same,sensitivity class NSCLC NCI-H460 CL1021,"cell line NSCLC NCI-H460, CL1021",3
same,sensitivity class NSCLC NCI-H522 CL1003,"cell line NSCLC NCI-H522, CL1003",2
same,sensitivity class Ovarian IGROV1 CL6010,"cell line Ovarian IGROV1, CL6010",2
same,sensitivity class Ovarian OVCAR-3 CL6001,"cell line Ovarian OVCAR-3, CL6001",2
same,sensitivity class Ovarian OVCAR-4 CL6002,"cell line Ovarian OVCAR-4, CL6002",1
same,sensitivity class Ovarian OVCAR-5 CL6003,"cell line Ovarian OVCAR-5, CL6003",2
same,sensitivity class Ovarian OVCAR-8 CL6005,"cell line Ovarian OVCAR-8, CL6005",2
same,sensitivity class Ovarian SK-OV-3 CL6011,"cell line Ovarian SK-OV-3, CL6011",1
same,sensitivity class Prostate DU-145 CL11003,"cell line Prostate DU-145, CL11003",2
same,sensitivity class Prostate PC-3(I) CL11001,"cell line Prostate PC-3(I), CL11001",2
same,sensitivity class Renal 786-O CL9018,"cell line Renal 786-O, CL9018",2
same,sensitivity class Renal A498 CL9013,"cell line Renal A498, CL9013",2
same,sensitivity class Renal ACHN CL9023,"cell line Renal ACHN, CL9023",3
same,sensitivity class Renal CAKI-1 CL9015,"cell line Renal CAKI-1, CL9015",3
same,sensitivity class Renal RXF-393 CL9016,"cell line Renal RXF-393, CL9016",2
same,sensitivity class Renal SN12C CL9008,"cell line Renal SN12C, CL9008",2
same,sensitivity class Renal TK10 CL9024,"cell line Renal TK10, CL9024",1
same,sensitivity class Renal UO-31 CL9004,"cell line Renal UO-31, CL9004",2
